Results published in patent US11213495B2, “Method and composition for decreasing the psychotomimetic side effect and addictive disorder of ketamine” (NATIONAL HEALTH RESEARCH INSTITUTES, priority 2016, dated 2022).

Tests used:
Assay type in all cases: in vivo
[1] = test system: Male ICR mice; test: Forced swim test (FST): duration of immobility, struggling and swimming
[2] = test system: Male ICR mice; test: Prepulse inhibition test (PPI) of acoustic startle; details: DMG 100 mg/kg pretreatment, ketamine 30 mg/kg; p<0.001
Procedure: The PPI was operated as described in our previous work (Chan et al., 2012a). Briefly, the animals were initially moved from the home cage, weighed, and then placed into the restrainers in the SR-LAB (San Diego Instruments, San Diego, Calif., USA) acoustic startle chambers for 30-min habituation. The test drug (0, 30 and 100 mg/kg) was administered 30 min prior to ketamine (30 mg/kg) or saline injection. After administration of ketamine or saline, the experiment started with a 5-min adaptation period during which the animals were exposed to 67-dB background white noise, and this background noise was continued throughout the session. Then, the following adaptation period startle session began with five initial startle stimuli (120 dB bursts of white noise, 40 ms duration). After the first five initial stimuli, mice received five different trial types: pulse alone trials (120 dB bursts of white noise, 40 ms duration), three prepulse and pulse trials in which 76, 81, or 86 dB white noise bursts (9, 14, and 19 dB above background) of 20 ms duration preceded 120 dB pulse by 100 ms prepulse onset to pulse onset, and no-stimuli trials during which only background noise was applied. Each of these trial types was presented five times in randomized order. The inter trial interval was 7-23 s, and the test lasted 15 min in total. Prepulse inhibition was calculated as the percent inhibition of the startle amplitude evoked by the pulse alone: % PPI=(magnitude on pulse alone trial−magnitude on prepulse+pulse trial/magnitude on pulse alone trial)×100.

[3] = test system: Male ICR mice; test: Forced swim test (FST): duration of immobility, struggling and swimming; details: DMG 30 mg/kg pretreatment prior to ketamine 10 mg/kg
Procedure: FST was conducted for two consecutive days. Mice were placed in a Plexiglas cylinder (33.5 cm height, 20 cm diameter) filled with 25±2° C. water to a height of 18-20 cm. For the first exposure, mice were placed in the water for 15 min (pre-test session) followed by […]. Twenty-four hours later (day 1 test session), various doses of test drug (at 0, 30 and 100 mg/kg) was administered 30 min prior to the ketamine (10 mg/kg) or saline. Then, the mice were tested 30 min after ketamine injection which placed in the water again for a 6 min session (test session), the first 2 minutes has elapsed. Immobility was assigned when no additional activity was observed other than that required to keep the head above the water.
This experiment included a control group and various doses of ketamine (3, 10, 15 mg/kg), betaine (10, 20, 30 mg/kg) and betaine (10, 20, 30 mg/kg) pretreatment prior to ketamine (fixed dose at 10 mg/kg). […] There was no significant effect of test session or interaction.

[4] = test system: Male ICR mice; test: Open field test / locomotor activity; details: DMG 30 and 100 mg/kg pretreatment 30 min prior to ketamine 30 mg/kg
Procedure: To evaluate the effect of DMG on ketamine-induced locomotor hyperactivity, the animals were moved from the home cage, weighed and placed into an activity cage (Columbus Auto-Track System, Version 3.0 A, Columbus Institute, Columbus, Ohio, USA) for 2 hours. Thereafter, the test drug (0, 30, and 100 mg/kg) was given 30 min prior to ketamine (30 mg/kg) or saline. The distance (cm) traveled was recorded for totally 180 min. A 70% alcohol solution was used to clean the inner surface of all the testing apparatus between trials to remove any potentially interfering odors left by the previous mouse.

[5] = test system: Male ICR mice; test: Loss of righting reflex (LORR); details: DMG 100 and 300 mg/kg 30 min prior to ketamine 100 mg/kg
Procedure: The test drug betaine (0, 300, and 600 mg/kg) or DMG (0, 100 and 300 mg/kg) was administered 30 min prior to the anesthetic doses of ketamine (100 mg/kg). Then, the mice were placed in a clean cage until the righting reflex was lost. They were then placed in the supine position until recovery and the onset and duration of the loss of righting reflex was recorded. Recovery of the righting reflex was defined as the ability to perform three successive rightings.

[6] = test system: Male Sprague-Dawley rats; test: Ketamine intravenous self-administration (IVSA) under progressive ratio (PR) schedule
Procedure: The dose-dependent effects of betaine and its metabolite DMG on ketamine addiction were evaluated by the intravenous self-administration (IVSA) paradigm under a progressive ratio (PR) schedule. Animals were implanted indwelling catheters flushing of ketamine (0.5 mg/kg/per infusion), termed the training dose, under a FR1 schedule during daily 3-h sessions. After acquisition of stable responding for ketamine (criterion of less than 20% deviation from the mean of the total number of reinforcers earned in three consecutive sessions for each rat), the ketamine reinforcement schedule was changed to FR2 and maintained until responding stabilized at least for 3 days. Then, the PR schedule was conducted. The lever presses required to gain an infusion was determined by: 5×e^(infusion number×0.2)−5 (i.e., 1, 2, 4, 6, 9, […], 15, 20, 25, 32, etc). […] The dose-dependent effects of betaine of self-administration of various doses of ketamine ([…]) were assessed by pretreatment 30 min prior to their daily operant session using a within-subject Latin square design.

[7] = test system: Male ICR mice; test: Novel location recognition test (NLRT); details: DMG 100 mg/kg pretreatment, ketamine 30 mg/kg; 30 min after sample phase
Procedure: (§1) The novel location recognition test (NLRT) and novel object recognition test (NORT) were examined in a Plexiglas open field box (35×35×30 cm) located in a sound-attenuated room and illuminated with a 20-W light bulb. The novel location and novel object recognition procedure consisted of habituation, training, and retention sessions. Habituation was conducted in two consecutive daily sessions, during which each mouse was allowed to individually explore the box in the absence of objects for 20 min. The animal is then removed from the arena and placed in its home cage. During the sample phase, each animal was placed in the box, and after 5 min, two identical sample objects (A+A) were simultaneously introduced in two corners. Each animal was allowed to explore the objects for 5 min. An animal was considered to explore the object when its head was facing the object at a distance of approximately 1 cm or less between the head and object or when it was touching or sniffing the object. The time spent exploring each object was recorded using stopwatches by an experimenter blind to the treatment condition.
After the sample phase, the mice were immediately returned to their home cages. […] The animals were allowed to explore the box freely for 5 min, and the time spent exploring each object was recorded as described above. […]

[8] = test system: Male ICR mice; test: Novel object recognition test (NORT); details: DMG 100 mg/kg pretreatment, ketamine 30 mg/kg; 24 h after sample phase
Procedure: as §1
After the sample phase, the mice were immediately returned to their home cages. The novel location recognition test was conducted 30 min after the training session. The animals were returned to the same box as during the sample phase, and one of the two objects was replaced with a novel local corner (A+A′) to test the location-based recognition memory. After 24 hours, novel object recognition test was performed. The mice are allowed to explore the open field with one identical sample object and a novel object to assess the novel object recognition memory (A+B). The animals were allowed to explore the box freely for 5 min, and the time spent exploring each object was recorded as described above. The objects and chambers were cleaned with 70% ethanol after each use. A preference index, a ratio of the amount of time spent exploring the original object or the novel location/object over the total time spent exploring both objects, was used to evaluate recognition memory. […]

[9] = test system: Male ICR mice; test: Rotarod test (motor coordination); details: DMG 30 and 100 mg/kg prior to ketamine 30 mg/kg
Procedure: Motor coordination was examined using an automated rotarod device (Singa; Technology Co., Ltd, Taiwan) for a maximum of 6 mice. A computer recorded the latency to fall in seconds. During two-three days training period, the mice were first trained on the rotarod at a constant speed of 20 rotations per minute (rpm) until all of the mice were able to spend at least 3 min on the road. The test drug (0, 30 and 100 mg/kg) was administered 30 min prior to the ketamine (30 mg/kg) or saline injection. Then, the mice were tested 10, 15, 20, 25, and 30 min after ketamine injection.

CN(C)CC(=O)O [DMG, N,N-dimethylglycine]
duration of immobility in FST ([1]; DMG 10, 20 and 30 mg/kg alone): significantly decreased
duration of immobility in FST ([1]; DMG 10, 20 and 30 mg/kg pretreatment prior to ketamine 10 mg/kg): significantly decreased
ketamine-induced disruption of PPI [2]: significantly attenuated
duration of immobility in FST compared with ketamine (10 mg/kg) alone [3]: significantly shorter duration of immobility
ketamine-induced locomotor hyperactivity [4]: reduced
duration of ketamine-induced loss of righting reflex [5]: did not affect
onset of ketamine-induced loss of righting reflex [5]: did not affect
reduction of cumulative responses by ketamine ([6]; DMG 100 mg/kg pretreatment, ketamine 0.3 mg/kg/infusion, PR schedule): 40%
ketamine self-administration under PR schedule ([6]; DMG pretreatment): significantly decreased
ketamine-induced recognition memory impairment in NLRT [7]: significantly attenuated
ketamine-induced recognition memory impairment in NORT [8]: significantly attenuated
ketamine-induced motor in coordination [9]: significantly reduced
